Results taken from patent US20210198277A1, “AMINE-SUBSTITUTED ARYL OR HETEROARYL COMPOUNDS” (Epizyme, Inc., priority 2016, published 2021).

Biological target: T1, EHMT2 (Homo sapiens, UniProt Q96KQ7)
T1 construct: host or cells: MDA-MB-231
T1 sequence (Q96KQ7 1-1210): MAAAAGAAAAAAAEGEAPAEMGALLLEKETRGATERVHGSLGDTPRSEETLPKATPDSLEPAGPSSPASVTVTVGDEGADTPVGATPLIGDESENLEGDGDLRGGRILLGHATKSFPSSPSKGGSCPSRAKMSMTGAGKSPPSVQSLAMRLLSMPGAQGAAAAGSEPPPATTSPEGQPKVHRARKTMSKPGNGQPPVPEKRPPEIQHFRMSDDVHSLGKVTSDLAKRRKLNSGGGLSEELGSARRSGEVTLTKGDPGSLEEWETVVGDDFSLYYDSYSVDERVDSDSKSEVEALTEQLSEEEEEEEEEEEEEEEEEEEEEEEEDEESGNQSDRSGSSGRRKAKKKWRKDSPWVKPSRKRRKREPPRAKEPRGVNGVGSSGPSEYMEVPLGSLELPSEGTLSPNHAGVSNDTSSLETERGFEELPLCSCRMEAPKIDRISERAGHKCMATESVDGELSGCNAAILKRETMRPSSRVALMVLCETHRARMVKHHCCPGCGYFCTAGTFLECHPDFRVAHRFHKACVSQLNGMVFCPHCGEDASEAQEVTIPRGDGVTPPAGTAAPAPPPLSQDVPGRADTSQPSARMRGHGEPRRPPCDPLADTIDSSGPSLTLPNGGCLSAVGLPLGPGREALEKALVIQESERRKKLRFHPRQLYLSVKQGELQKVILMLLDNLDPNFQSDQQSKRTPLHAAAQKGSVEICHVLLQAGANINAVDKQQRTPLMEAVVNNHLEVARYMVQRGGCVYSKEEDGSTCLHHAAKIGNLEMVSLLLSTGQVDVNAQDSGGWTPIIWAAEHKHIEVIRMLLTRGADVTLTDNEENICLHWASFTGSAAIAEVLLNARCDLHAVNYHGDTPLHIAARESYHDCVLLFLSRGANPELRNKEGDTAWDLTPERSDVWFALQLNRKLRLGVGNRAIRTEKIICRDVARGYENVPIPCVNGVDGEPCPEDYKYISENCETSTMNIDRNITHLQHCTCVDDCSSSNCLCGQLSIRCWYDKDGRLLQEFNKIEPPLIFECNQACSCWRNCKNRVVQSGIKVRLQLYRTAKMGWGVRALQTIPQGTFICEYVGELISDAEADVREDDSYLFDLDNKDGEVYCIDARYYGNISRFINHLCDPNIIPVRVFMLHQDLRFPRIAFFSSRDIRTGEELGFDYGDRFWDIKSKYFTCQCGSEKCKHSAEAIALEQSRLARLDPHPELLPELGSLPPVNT
Test: MDA-MB-231 H3K9me2 in-cell Western assay (EHMT2 ICW)
Format: cell-based
Details: Table II; MDA-MB-231 H3K9me2 in-cell Western; read-out: EHMT2 ICW (IC50 μM)
Summary of the method: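 Infrared read-out at 800 and 700 nm (H3K9me2 antibody vs DRAQ5 DNA stain) of fixed MDA-MB-231 cells after 48 h compound treatment at 37 °C. Well ratios were converted to percent inhibition, and IC50 was obtained by variable-slope nonlinear regression on triplicates.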

SMILES | IC50 [µM]
COc1ccc(Nc2nccc(NCC3CCNCC3)n2)cc1OCCCN1CCOCC1 [Compound 16, N^2-(4-methoxy-3-(3-morpholinopropoxy)phenyl)-N^4-(piperidin-4-ylmethyl)pyrimidine-2,4-diamine] | > 10
COc1ccc(Nc2nccc(NCC3CCNCC3)n2)cc1CCNCC1CCCC1 [Compound 17, N^2-(3-(2-((cyclopentylmethyl)amino)ethyl)-4-methoxyphenyl)-N^4-(piperidin-4-ylmethyl)pyrimidine-2,4-diamine] | > 10
COc1ccc(Nc2nccc(NCC3CCN(C(C)=O)CC3)n2)cc1OCC1CCN(C)C1 (stereo not shown) [Compound 18, 1-(4-(((2-((4-methoxy-3-((1-methylpyrrolidin-3-yl)methoxy)phenyl)amino)pyrimidin-4-yl)amino)methyl)piperidin-1-yl)ethan-1-one] | 1 to 10
COc1ccc(Nc2nc(C)cc(NCC3CCN(C(C)=O)CC3)n2)cc1OCCCN1CCCC1 [Compound 19, 1-(4-(((2-((4-methoxy-3-(3-(pyrrolidin-1-yl)propoxy)phenyl)amino)-6-methylpyrimidin-4-yl)amino)methyl)piperidin-1-yl)ethan-1-one] | 0.1 to 1
COc1ccc(Nc2nccc(NC(C)C)n2)cc1OCCCN1CCCC1 [Compound 20] | 0.1 to 1
COc1ccc(Nc2nccc(NCc3ccccc3)n2)cc1OCCCN1CCCC1 [Compound 21] | 0.1 to 1
COCCCNc1ccnc(Nc2ccc(OC)c(OCCCN3CCCC3)c2)n1 [Compound 22] | 0.1 to 1
COc1ccc(Nc2nccc(NCc3ccccn3)n2)cc1OCCCN1CCCC1 [Compound 23] | 0.1 to 1
COc1ccc(Nc2nccc(NCc3ccncc3)n2)cc1OCCCN1CCCC1 [Compound 24] | 0.1 to 1
COc1ccc(Nc2nccc(NCc3cccnc3)n2)cc1OCCCN1CCCC1 [Compound 25] | 0.1 to 1
COc1cccc(CNc2ccnc(Nc3ccc(OC)c(OCCCN4CCCC4)c3)n2)c1 [Compound 26] | 0.1 to 1
COCCNc1ccnc(Nc2ccc(OC)c(OCCCN3CCCC3)c2)n1 [Compound 27] | 0.1 to 1
COc1ccc(CNc2ccnc(Nc3ccc(OC)c(OCCCN4CCCC4)c3)n2)cc1 [Compound 28] | 0.1 to 1
COc1ccc(Nc2nccc(NCC3CCN(C(C)C)CC3)n2)cc1OCCCN1CCCC1 [Compound 29] | 0.1 to 1
COc1ccc(Nc2nccc(NCc3cnn(C)c3)n2)cc1OCCCN1CCCC1 [Compound 30] | 0.1 to 1
COc1ccc(Nc2nccc(NCc3nc4ccccc4[nH]3)n2)cc1OCCCN1CCCC1 [Compound 31] | 0.1 to 1
COc1ccc(Nc2nccc(NCC3CCN(C)CC3)n2)cc1OCCCN1CCCC1 [Compound 32] | 0.1 to 1
COc1ccc(Nc2nccc(NCC3CCN(c4ccccc4)CC3)n2)cc1OCCCN1CCCC1 [Compound 33] | 0.1 to 1
COc1ccc(Nc2nccc(NCC3CCCC3)n2)cc1OCCCN1CCCC1 [Compound 34] | 0.1 to 1
COc1ccc(Nc2cccc(NC3CCC3)n2)cc1OCCCN1CCCC1 [Compound 35] | 0.1 to 1
COc1ccccc1CNc1ccnc(Nc2ccc(OC)c(OCCCN3CCCC3)c2)n1 [Compound 36] | 0.1 to 1

SMILES | IC50 [µM]
COc1ccc(Nc2nccc(NCCc3cccnc3)n2)cc1OCCCN1CCCC1 [Compound 37] | 0.1 to 1
COc1ccc(Nc2nccc(NCCNC(C)=O)n2)cc1OCCCN1CCCC1 [Compound 38] | 0.1 to 1
COc1ccc(Nc2nccc(NCCc3ccncc3)n2)cc1OCCCN1CCCC1 [Compound 39] | 0.1 to 1
COc1ccc(Nc2nccc(NCCOc3ccccc3)n2)cc1OCCCN1CCCC1 [Compound 40] | 1 to 10
CNC(=O)CNc1ccnc(Nc2ccc(OC)c(OCCCN3CCCC3)c2)n1 [Compound 41] | 1 to 10
COc1ccc(Nc2nccc(NCC(C)(C)O)n2)cc1OCCCN1CCCC1 [Compound 42] | 1 to 10
COc1ccc(Nc2nccc(NCCS(=O)(=O)N(C)C)n2)cc1OCCCN1CCCC1 [Compound 43] | 1 to 10
COc1ccc(Nc2nccc(NCCCN(C)C(C)=O)n2)cc1OCCCN1CCCC1 [Compound 44] | 1 to 10
COc1ccc(Nc2nccc(NCC3(O)CCCCC3)n2)cc1OCCCN1CCCC1 [Compound 45] | 1 to 10
COc1ccc(Nc2nccc(NCc3cc[nH]n3)n2)cc1OCCCN1CCCC1 [Compound 46] | 1 to 10
COc1ccc(Nc2nccc(NCC3CCN(C(C)=O)CC3)n2)cc1OCCCN1CCCC1 [Compound 47, 1-(4-(((2-((4-methoxy-3-(3-(pyrrolidin-1-yl)propoxy)phenyl)amino)pyrimidin-4-yl)amino)methyl)piperidin-1-yl)ethan-1-one] | 1 to 10
COc1ccc(Nc2nccc(NCC3CCN(C(C)=O)CC3)n2)cc1COCCN1CCCC1 [Compound 48] | 1 to 10
COc1ccc(Nc2nccc(NCC3(O)CCOCC3)n2)cc1OCCCN1CCCC1 [Compound 49] | 1 to 10
COc1ccc(Nc2nccc(NC3CCCCC3)n2)cc1OCCCN1CCCC1 [Compound 50] | 1 to 10
CNc1cc(C)nc(Nc2ccc(OC)c(OCCCN3CCCC3)c2)n1 [Compound 205, N^2-(4-methoxy-3-(3-(pyrrolidin-1-yl)propoxy)phenyl)-N^4,6-dimethylpyrimidine-2,4-diamine] | < 0.1
CNc1cc(Nc2ccc(OC)c(OCCCN3CCCC3)c2)ccn1 [Compound 206] | > 10
CNc1ccnc(Nc2cccc(OCCCN3CCCC3)c2)n1 [Compound 207, N^4-methyl-N^2-(3-(3-(pyrrolidin-1-yl)propoxy)phenyl)pyrimidine-2,4-diamine] | 1 to 10
CNc1nc(C)cc(Nc2ccc(OC)c(OCCCN3CCCC3)c2)n1 [Compound 208] | 1 to 10
CNc1ccnc(Nc2ccc(OC)c(OCCCN3CCCC3)c2)c1 [Compound 209, N^2-(4-methoxy-3-(3-(pyrrolidin-1-yl)propoxy)phenyl)-N^4-methylpyridine-2,4-diamine] | 1 to 10
CNc1ccnc(Nc2ccc(OC)c(OCCCN3CCOCC3)c2)n1 [Compound 210] | 1 to 10
COc1ccc(Nc2nccc(-n3nc(C)cc3C)n2)cc1OCCCN1CCCC1 [Compound 214] | > 10

SMILES | IC50 [µM]
CNCc1cnc(Nc2ccc(OC)c(OCCCN3CCCC3)c2)nc1 [Compound 215] | > 10
COc1ccc(Nc2ccnc(NCC3CCN(C(C)=O)CC3)n2)cc1OCCCN1CCCC1 [Compound 216] | > 10
COc1ccc(Nc2ccc3cnn(C)c3c2)cc1OCCCN1CCCC1 [Compound 217] | > 10
COc1ccc(Nc2ccc3ncn(C)c3n2)cc1OCCCN1CCCC1 [Compound 218] | > 10
COc1ccc(Nc2ncc3ncn(C)c3n2)cc1OCCCN1CCCC1 [Compound 219] | > 10
COc1ccc(Nc2cccc3ncnn23)cc1OCCCN1CCCC1 [Compound 220] | > 10
COc1ccc(Nc2ccc3nn(C)cc3c2)cc1OCCCN1CCCC1 [Compound 221] | > 10
COc1ccc(Nc2cccc3cn(C)nc23)cc1OCCCN1CCCC1 [Compound 222] | > 10
COc1ccc(Nc2ccc3ncc(C)n3n2)cc1OCCCN1CCCC1 [Compound 223] | > 10
COc1ccc(Nc2nccc(-c3cnn(C)c3)n2)cc1OCCCN1CCCC1 [Compound 224] | > 10
COc1ccc(Nc2nccc(Nc3cccc(F)c3)n2)cc1OCCCN1CCCC1 [Compound 225] | 1 to 10
COc1ccc(Nc2nccc(NCC3CCOCC3)n2)cc1NCCCN1CCCC1 [Compound 226] | 1 to 10
COc1ccc(OCCCN2CCCC2)cc1Nc1nccc(NCC2CCOCC2)n1 [Compound 227] | > 10
COc1ccc(NCCCN2CCCC2)cc1Nc1nccc(NCC2CCOCC2)n1 [Compound 228] | > 10
CNc1ccnc(Nc2ccc(OC)c(OCCCN3CC[C@@H](F)C3)c2)n1 [Compound 229] | 1 to 10
CNc1ccnc(Nc2ccc(OC)c(OCCCN3CC(F)C3)c2)n1 [Compound 230] | 1 to 10
CNc1nccc(Nc2ccc(OC)c(OCCCN3CCCC3)c2)n1 [Compound 231] | 0.1 to 1
CNc1cc(C)nc(Nc2ccc(F)c(OCCCN3CCCC3)c2)n1 [Compound 232] | > 10
CNc1nc(Nc2ccc(OC)c(OCCCN3CCCC3)c2)ncc1C#N [Compound 233] | > 10
